Laboratory results: paper PMC8333425, “Discovery of a dual Ras and ARF6 inhibitor from a GPCR endocytosis screen” (Nature Communications, 2021)
Where “and” joins values, the source holds several entries; their conditions need not be identical. Identical values can stand only once.

How the values were obtained:
[1] = test system: ERK1/2 activation by AT1R; test: Western blot of AT1R-mediated ERK1/2 activation in Gαq/11 KO cells (with or without β-arrestin2); format: cell-based, human; details: for ERK1/2 activation by AT1R in cells lacking Gαq/11, supplemented or not with β-arrestin: 50 μM
Method: HEK293SL cells (10^5 cells per well) were seeded in a poly-L-lysine-coated six-well plate and transiently transfected with 3 μg Flag-AT1R, HA-B2R or HA-β2AR and/or 500 ng Flag-MEK1-WT, Flag-MEK1-DD, Flag-BRAF-WT, Flag-BRAF-V600E, Flag-K-Ras-WT, Flag-K-Ras-G12V, HA-ARF6-WT, or HA-ARF6-T27N. Gαq/11 KO and βarr1/2 KO cells were seeded onto 100 mm dishes at a density of 10^6 cells per dish. Next day, cells were transfected with 3 μg AT1R alone or along with 500 ng of β-arrestin2 using PEI. After 18 h of transfection, cells were detached and re-seeded onto poly-L-lysine coated 12-well plates (~1.5–2 × 10^5cells/well) for subsequent experiments. Forty-eight hours post transfection, in a 37 °C water bath, cells were serum-starved for 30 min, pretreated with DMSO (0.1%) or compound 21/Rasarfin (50 µM or at indicated concentrations) for 30 min, then stimulated or not with the indicated ligand [AngII (1 µM), BK (1 µM), Iso (10 µM) or EGF (100 ng/ml)] at indicated times. Cells were put on ice, washed with PBS and solubilized in 2x laemmli buffer (250 mM Tris–HCl pH 6.8, 2% SDS (w/v), 10% glycerol (v/v), 0.01% bromophenol blue (w/v) and 5% β-mercaptoethanol (v/v)) by heating at 65 °C for 15 min. Lysates were resolved on 10 or 14% SDS-PAGE, transferred to nitrocellulose membranes and immunoblotted for p-ERK1/2, ERK1/2, p-Akt, Akt, HA, Myc, β-actin or FLAG. ImageLab 5.2 software was used to quantify the digital blots as fold of the phosphorylated protein over total protein, which were then normalized as indicated in the figure legends. Uncropped immunoblots are provided in the Source Data file.

[2] = test system: β-arrestin1 recruitment to AT1R; test: BRET recruitment of β-arrestin1 to AT1R; format: cell-based, human; details: for AngII-promoted BRET, β-arrestin1 (Barr1) recruitment to AT1R: Comp 21 50 μM, individual experiments
Method: HEK293SL cells were seeded at a density of 7.5 × 10^5 cells per 100-mm dish and 24 h later, transiently transfected as such. For receptor internalization experiments, cells were transfected with 0.12 μg AT1R-RlucII, B2R-RlucII, or β2AR-RlucII and 0.48 μg of either rGFP-CAAX (to assess removal from the PM) or rGFP-FYVE (to assess accumulation in the endosomes). For β-arrestin recruitment assays, cells were transfected with 0.48 μg of receptor-YFP along with 0.12 μg of β-arrestin-RlucII. For β-arrestin/AP-2 binding experiments, cells were transfected with 1 μg Flag-AT1R, 1 μg β2-Adaptin-YFP, and 0.12 μg β-arrestin2-RlucII. For G protein activation, cells were transfected with 3 μg of sp-Flag-AT1R along with either 4.5 μg of the Gαq-polycistronic BRET sensor or 0.24 μg of the Gαi3-RlucII and 0.6 μg of GFP10-Gγ2 and Gβ1 sensors or 0.12 μg PKN-RBD-RlucII and 0.48 μg of rGFP-CAAX. For PKC activation, cells were transfected with 3 μg of sp-Flag-AT1R and 0.18 μg of the PKC sensor. For GTPase activation experiments, cells were transfected with 1 μg Flag-AT1R, 0.48 μg of rGFP-CAAX, and either 0.12 μg of GGA3-PBD-RlucII, PAK-CRIB-RlucII or Raf-RBD-RlucII. For biosensor validation experiments, cells were additionally transfected with 500 ng Flag-K-Ras-WT, Flag-K-Ras-G12V, Flag-K-Ras-SOS-CAAX, HA-ARF6-WT, HA-ARF6-T27N, Myc-Rac1-WT, Myc-Rac1-Q61L or Myc-Rac1-T17N. For PI3K/Akt activation experiments, cells were transfected with 0.48 μg of rGFP-CAAX and 0.12 μg of Akt (PH)-RlucII. After 18 h of transfection, the media was replaced and cells were divided for subsequent experiments. Cells were detached and seeded onto poly-L-ornithine-coated 96-well flat white bottom plates (BrandTech Scientific) at a density of 2.5 × 10^4 cells per well in media. The next day, cells were washed once with Tyrode’s buffer (140 mM NaCl, 2.7 mM KCl, 1 mM CaCl2, 12 mM NaHCO3, 5.6 mM D-glucose, 0.5 mM MgCl2, 0.37 mM NaH2PO4, 25 mM HEPES, pH 7.4) and left in Tyrode’s buffer. For kinetics of β-arrestin recruitment or β-arrestin binding to receptor and AP-2 experiments, cells were serum starved for 30 min, pretreated with 21 (50 µM) or Barbadin (100 µM) for 30 min, stimulated with 100 nM AngII or 1 µM BK and BRET signals were monitored at indicated times using a Victor X Light plate reader (PerkinElmer). Coelenterazine H (final concentration of 5 µM) was added 3–5 min prior to BRET measurements. Filter set was 460/80 nm and 535/30 nm for detecting the RlucII Renilla luciferase (donor) and YFP (acceptor) light emissions, respectively. The BRET ratio was determined by calculating the ratio of the light emitted by YFP over the light emitted by the RlucII. For G protein activation, cells were serum starved, pretreated with compounds for 30 min, stimulated with 100 nM AngII for 2 min (Gαq, Gαi3, and Rho sensors) or 5 min (PKC sensor). For the kinetics of GTPase and PI3K/Akt activation, cells were serum starved, pretreated with 21 (50 µM) or Wortmannin (200 nM) for 30 min, stimulated with ligand (100 nM AngII or 100 ng/ml EGF) and BRET signals were monitored at indicated times. For concentration-response curves, cells were serum-starved, pretreated with various concentrations of compounds for 30 min and stimulated with ligand (100 nM AngII, 1 µM BK, 10 µM Isoproterenol (Iso) or 100 ng/ml EGF) in Tyrode’s buffer for 30 min for receptor internalization, 10 min for ARF6, 2 min for Rac and Rho activation and 5 min for Ras activation and PI3K/Akt activation. BRET signals were monitored using a Synergy2 (BioTek) microplate reader and coelenterazine 400a (final concentrations of 5 µM) added 3–5 min prior to BRET measurements. Filter set was 410/80 nm and 515/30 nm for detecting the RlucII Renilla luciferase (donor) and rGFP/GFP10 (acceptor) light emissions, respectively. The BRET ratio was determined by calculating the ratio of the light emitted by rGFP/GFP10 over the light emitted by the RlucII.

[3] = Gq/11 KO cells + barr2, Time 0 min

CC(C)C(=O)N1CCN(c2ccc(NC(=O)c3cc4ccccc4o3)cc2Cl)CC1 [Compound 21] was tested, and the “ERK1/2 activation by AT1R in cells lacking Gαq/11, supplemented or not with β-arrestin” value [1] was “efficiently inhibited ERK1/2 activation”, the “ERK1/2 activation by AT1R in cells lacking Gαq/11, supplemented or not with β-arrestin” value ([1]; listed as Rasarfin) was “totally blocked” and the “ERK1/2 activation relative to time 0 (S_Fig.4a)” value [1, 3] was 1. For the same compound, the “Predicted (LS) mean diff. DMSO - Comp 21 (Bonferroni's multiple comparisons test)” value (shortened to “Predicted (LS) mean diff. DMSO”) [1, 3] was 0, the “Predicted (LS) mean diff. DMSO” value ([1]; Gq/11 KO cells + barr2, Time 5 min) was 5.112 and the “Predicted (LS) mean diff. DMSO” value ([1]; Gq/11 KO cells + barr2, Time 20 min) was 2.869. For the same compound, the “ERK1/2 activation relative to time 0 (S_Fig.4a)” value ([1]; Gq/11 KO cells, Time 0 min) was 1, the “Mean Diff. DMSO - Comp 21 (Bonferroni's multiple comparisons test)” value ([1]; Gq/11 KO cells, Time 0 min) was 0 and the “Mean Diff. DMSO - Comp 21 (Bonferroni's multiple comparisons test)” value ([1]; Gq/11 KO cells, Time 5 min) was 14.92. The “ERK1/2 activation relative to time 0 (S_Fig.4a)” value ([1]; Gq/11 KO cells, Time 5 min, listed as Comp 21) was 0.6393 and 0.9475 and 0.8926 and 0.5297, the “Mean Diff. DMSO - Comp 21 (Bonferroni's multiple comparisons test)” value ([1]; Gq/11 KO cells, Time 20 min) was 7.116 and the “β-arrestin1 recruitment to AT1R at the PM” value ([2]; 50 μM) was “did not preclude”. The “AngII-promoted BRET, β-arrestin1 (Barr1) recruitment to AT1R” value (from here on “AngII-promoted BRET, β-arrestin1”) ([2]; time 0 min) was 0, the “AngII-promoted BRET, β-arrestin1” value ([2]; time 5 min) was 0.07621 and 0.08371 and 0.04185 and the “AngII-promoted BRET, β-arrestin1” value ([2]; time 10 min) was 0.1164 and 0.1114 and 0.05569. The “AngII-promoted BRET, β-arrestin1” value ([2]; time 15 min) was 0.1198 and 0.1209 and 0.06044, the “AngII-promoted BRET, β-arrestin1” value ([2]; time 30 min) was 0.1393 and 0.143 and 0.07152 and the “AngII-promoted BRET, β-arrestin1” value ([2]; time 60 min) was 0.1361 and 0.1426 and 0.1043.
